For orientation: IC50 means the point on the concentration scale where inhibition reaches its midpoint. High values mean weaker potency, low ones greater potency.

The experiment has as its system L1210. The experiment is described as follows: Cytotoxicity against mouse L1210 cells after 24 hrs by WST8 assay. Type of experiment: functional, cell-based. The conditions noted are these: L1210, 24 h.
Regarding `O=C(O[C@@H]1Cc2c(O)cc(O)cc2O[C@@H]1c1cc(O)c(O)c(O)c1)c1cc(O)c(O)c(OC(=S)Nc2ccc3c(c2)C(=O)OC32c3ccc(O)cc3Oc3cc(O)ccc32)c1`, the half-inhibitory concentration (IC50) is not below 325 µM.
`O=C1OC2(c3ccc(O)cc3Oc3cc(O)ccc32)c2ccc(N=C=S)cc21` yielded a concentration for half-maximal inhibition (IC50) of 700 µM.
With `O=C(O[C@@H]1Cc2c(O)cc(O)cc2O[C@@H]1c1cc(O)c(O)c(O)c1)c1cc(O)c(O)c(O)c1` [EPIGALOCATECHIN GALLATE], the IC50 was determined as 690 µM.

For the origin of these results see ChEMBL document CHEMBL1142548, “Time-dependent intracellular trafficking of FITC-conjugated epigallocatechin-3-O-gallate in L-929 cells” (Bioorg Med Chem, 2008).
